Values quoted from earlier work as cited in patent US20220211661A1, “GREEN TEA CATECHINS EUTECTIC SYSTEM” (ASSISTANCE PUBLIQUE - HOPITAUX DE PARIS, priority 2019, published 2022).

Conditions: after 1-h ultra violet irradiation

EGCG decomposed: 70%
Substance: (-)-epigallocatechin-3-gallate [EGCG]
